Consider six molecules from patent publication US6500425B1, “Inhibiting plant pathogens with an antagonistic microorganism(s)” (The United States of America as represented by the …, priority 1988, dated 2002).

The structures appear in SMILES notation.

Assay type in all cases: in vivo
Assay [1] has as its system Botrytis cinerea. The assay is described as follows: Botrytis cinerea infection of wounded apples, inorganic salts with or without NRRL Y-18314 (Example XI). The following applies: for Percent Infection, Salt Alone (No NRRL Y-18314): salt 2 grams/100 ml (FeSO4 5 millimolar), 10 days after inoculation, mean (standard error). As for the experimental part: Golden delicious apples were artificially wounded to a depth of 3 mm using a needle. Each of a first portion of the apples was treated with 50 microliter aliquots of an aqueous solution consisting of NRRL Y-18314 in sterile distilled water at a concentration of 10^7 CEU/ml with each of the salts listed in Table VIII at a concentration of 2 grams/100 ml (with the exception of FeSO4 which was utilized at a 5 millimolar concentration). A second portion of the apples was treated with a 50 microliter aqueous solution of the salts listed in Table VIII at a concentration of 2 grams/100 ml (with the exception of FeSO4 which was utilized in a concentration of 5 millimolar). Also a control was run using only sterile distilled water. Two hours after application of the above solutions, each of the apples was challenged with 20 microliters of a 10^5 spore/ml suspension of Botrytis cinerea. The average percent fruit infection of four trials (8 to 10 replicates per trial) was measured 10 days after inoculation with the Botrytis cinerea.
Values in parentheses are standard errors of the mean.

The test system of assay [2] is Botrytis cinerea. The assay is described as follows: Botrytis cinerea infection of wounded apples, yeasts with or without CaCl2 (Example XII). The following applies: CaCl2 2 grams/100 ml, no yeast, seven days, mean (standard error). The text has this:
Golden Delicious apples were wounded in accordance with the previous example. […] Two hours later the apples were challenged with 20 microliters of a suspension of 10^4 spores/milliliters of Botrytis cinerea. Seven days after inoculation percent infection was observed. […] Values in parentheses are standard errors of the mean.

Another assay concerns Penicillium expansum. Briefly: Penicillium expansum lesion diameter on wounded apples (Example XIII). The following applies: CaCl2 2 gram/100 ml alone (yeast 0), seven days. The text has this: Golden delicious apples were artificially wounded in accordance with Example XI.
The entries of Table X are the average of 5 replicates per treatment.

A further assay concerns Penicillium digitatum. The assay is described as follows: Penicillium digitatum fruit rot of wounded grapefruit, CaCl2 and yeast concentrations (Example XIV). As for the experimental part:
Grapefruit was wounded as in Example I. The wounded grapefruit were then treated with 50 microliter aliquots of the constituents identified in Tables XI and XII in sterile distilled water. Two hours later the […] were challenged with 20 microliters of a 10^4 spore/milliliter suspension of Penicillium digitatum. The grapefruit were incubated for 5 days at 24° C. before observations were taken.

For the molecule `[Ca+2].[Cl-].[Cl-]` [CaCl2, calcium chloride], the “Percent Infection, Salt Alone (No NRRL Y-18314)” value in the assay with Botrytis cinerea [1] was 95.0 (±5.0) %. In the assay on Botrytis cinerea [1] (used alone, 10 days), the “infection reduction when used alone” value is given as “approximately 5%”. Also, in the assay with Botrytis cinerea [2], the “Average Percent Infection” value is 100.0 (±0.0) %. Moreover, the entries for the “Average Lesion Diameter” value with Penicillium expansum (10^3 spores/ml), in the assay on Penicillium expansum (10^4 spores/ml) and in the assay on Penicillium expansum (10^5 spores/ml) were 40.4 mm, 45.2 mm and 47.0 mm, respectively. For the same molecule, the “Average Percent Fruit Rot” value in the assay on Penicillium digitatum (CaCl2 1% alone (yeast 0), series of Table XI) stood at 39.0%; in the assay on Penicillium digitatum (CaCl2 1% alone (yeast 0), series of Table XII) it was 63.0%; with Penicillium digitatum (CaCl2 2% alone (yeast 0), series of Table XI) it was 22.8%; in the assay on Penicillium digitatum (CaCl2 2% alone (yeast 0), series of Table XII) it was 33.0%.
With `O=S(=O)([O-])[O-].[Fe+2]` [FeSO4], the “Percent Infection, Salt Alone (No NRRL Y-18314)” value in the assay with Botrytis cinerea [1] is 87.5 (±12.5) %.
With `[Cl-].[K+]` [KCl], in the assay on Botrytis cinerea [1], the “Percent Infection, Salt Alone (No NRRL Y-18314)” value is reported as 100.0 (±0.0) %.
For the molecule `[Cl-].[Cl-].[Mg+2]` [MgCl2], in the assay with Botrytis cinerea [1], the “Percent Infection, Salt Alone (No NRRL Y-18314)” value is 100.0 (±0.0) %.
For `[Cl][Mn][Cl]` [MnCl2], in the assay on Botrytis cinerea [1], the “Percent Infection, Salt Alone (No NRRL Y-18314)” value is reported as 100.0 (±0.0) %.
Consider `[Cl-].[Na+]` [NaCl], for which the “Percent Infection, Salt Alone (No NRRL Y-18314)” value in the assay on Botrytis cinerea [1] is on record as 100.0 (±0.0) %.
